Results: patent US8859466B2, “Oxaspirocyclic spiro-substituted tetramic acid and tetronic acid derivatives” (Bayer CropScience AG, priority 2007, dated 2014)

Assay: Determination of the logP values by HPLC on a reverse-phase column (C 18)
Type: physicochemical
Details: for log P / chromatographic logP: HPLC, reverse-phase C 18, acidic range (pH 3.4), 55° C.; for chromatographic logP: reverse-phase HPLC column (C 18), read-out: log P
Procedure: Determination of the logP Values
The logP values given in the table were determined in accordance with EEC Directive 79/831 Annex V.A8 by HPLC (high performance liquid chromatography) on a reverse-phase column (C 18). Temperature: 55° C.
Mobile phases for the determination in the acidic range (pH 3.4):
Mobile phase A: acetonitrile+1 ml of formic acid/liter. Mobile phase B: water+0.9 ml of formic acid/liter.
Gradient: from 10% mobile phase A/90% mobile phase B to 95% mobile phase A/5% mobile phase B over 4.25 min.
Calibration was carried out using unbranched alkan-2-ones (having 3 to 16 carbon atoms) with known logP values (determination of the logP values by the retention times using linear interpolation between two successive alkanones). The lambda max values were determined in the maxima of the chromatographic signals using the UV spectra from 200 nm to 400 nm.

[1] = HPLC on a reverse-phase column (C 18), separated α/β isomers

Compound	log P* [1]	log P* (compounds of formula (I-2-b))	further results
CCOC(=O)OC1=C(c2c(CC)cc(C)cc2CC)C(=O)OC12CCC1(CCCO1)CC2 (stereo not shown) [Example I-2-c-4]			log P: 5.28
O=C1OC2(CCC3(CCCO3)CC2)C(O)=C1c1cc(-c2ccc(F)cc2)ccc1Cl (stereo not shown) [Example I-2-a-51]	3.42		
Cc1ccc(-c2ccc(F)cc2)cc1C1=C(O)C2(CCC3(CCCO3)CC2)OC1=O (stereo not shown) [Example I-2-a-22]	3.0		
CCOC(=O)OC1=C(c2c(CC)cc(C)cc2CC)C(=O)OC12CCC1(CCCO1)CC2 (stereo not shown) [Example I-2-c-3]			log P: 4.68
O=C1OC2(CCC3(CCCO3)CC2)C(O)=C1c1cc(-c2ccc(F)cc2)ccc1Cl (stereo not shown) [Example I-2-a-50]	2.91		
Cc1cc(C)c(-c2ccc(Cl)cc2)c(C)c1C1=C(O)C2(CCC3(CCCO3)CC2)OC1=O (single isomer, unassigned) [Example I-2-a-42]	3.79		
CCc1cc(Br)cc(C)c1C1=C(O)C2(CCC3(CCCO3)CC2)OC1=O (single isomer, unassigned) [Example I-2-a-6]	3.44		
CCc1cc(Cl)cc(CC)c1C1=C(O)C2(CCC3(CCCO3)CC2)OC1=O (single isomer, unassigned) [Example I-2-a-9]	3.62		
CCc1cc(C)cc(C)c1C1=C(O)C2(CCC3(CCCO3)CC2)OC1=O (single isomer, unassigned) [Example I-2-a-14]	2.73		
Cc1cc(C2=C(O)C3(CCC4(CCCO4)CC3)OC2=O)c(Cl)cc1Cl (single isomer, unassigned) [Example I-2-a-41]	3.14		
Cc1cc(C)c(-c2ccc(Cl)cc2)cc1C1=C(O)C2(CCC3(CCCO3)CC2)OC1=O (stereo not shown) [Example I-2-a-26]	4.15		
CCOC(=O)OC1=C(c2c(C)cc(C)cc2C)C(=O)O[C@]12CC[C@]1(CCCO1)CC2 [Example I-2-c-1]			chromatographic logP: 4.09
Cc1cc(C2=C(O)C3(CCC4(CCCO4)CC3)OC2=O)c(C)cc1Br (single isomer, unassigned) [Example I-2-a-30]	3.28		
Cc1ccc(-c2ccc(Cl)c(Cl)c2)cc1C1=C(O)C2(CCC3(CCCO3)CC2)OC1=O (stereo not shown) [Example I-2-a-12]	3.74		
CCc1cc(Br)cc(Cl)c1C1=C(O)C2(CCC3(CCCO3)CC2)OC1=O (single isomer, unassigned) [Example I-2-a-37]	3.40		
Cc1cc(C2=C(O)C3(CCC4(CCCO4)CC3)OC2=O)c(C)cc1Br (single isomer, unassigned) [Example I-2-a-31]	2.77		
Cc1ccc(-c2ccc(F)cc2)cc1C1=C(O)C2(CCC3(CCCO3)CC2)OC1=O (stereo not shown) [Example I-2-a-23]	3.5		
Cc1ccc(-c2ccc(F)cc2)c(C)c1C1=C(O)C2(CCC3(CCCO3)CC2)OC1=O (stereo not shown) [Example I-2-a-47]	3.20		
COc1cccc(C)c1C1=C(O)C2(CCC3(CCCO3)CC2)OC1=O (single isomer, unassigned) [Example I-2-a-34]	2.05		
COc1cccc(C)c1C1=C(O)C2(CCC3(CCCO3)CC2)OC1=O (single isomer, unassigned) [Example I-2-a-35]	2.42		
CCc1cc(Br)cc(Cl)c1C1=C(O)C2(CCC3(CCCO3)CC2)OC1=O (single isomer, unassigned) [Example I-2-a-36]	2.77		
Cc1ccc(-c2ccc(Cl)c(Cl)c2)cc1C1=C(O)C2(CCC3(CCCO3)CC2)OC1=O (stereo not shown) [Example I-2-a-13]	4.24		

Compound	log P* [1]	log P* (compounds of formula (I-2-b))	further results
COc1cc(C)cc(C)c1C1=C(OC(=O)C(C)C)[C@]2(CC[C@@]3(CCCO3)CC2)OC1=O [Example I-2-b-1]			chromatographic logP: 4.12
O=C1OC2(CCC3(CCCO3)CC2)C(O)=C1c1cc(-c2ccc(Cl)cc2)ccc1Cl (stereo not shown) [Example I-2-a-20]	3.25		
CCc1cc(C)cc(CC)c1C1=C(O)C2(CCC3(CCCO3)CC2)OC1=O (single isomer, unassigned) [Example I-2-a-17]	3.47		
CCc1cc(C)cc(C)c1C1=C(O)C2(CCC3(CCCO3)CC2)OC1=O (single isomer, unassigned) [Example I-2-a-15]	3.21		
O=C1OC2(CCC3(CCCO3)CC2)C(O)=C1c1cc(-c2ccc(Cl)cc2)ccc1Cl (stereo not shown) [Example I-2-a-21]	3.79		
Cc1cc(C2=C(O)C3(CCC4(CCCO4)CC3)OC2=O)c(Cl)cc1Cl (single isomer, unassigned) [Example I-2-a-40]	2.60		
CCc1cc(Cl)cc(C)c1C1=C(O)C2(CCC3(CCCO3)CC2)OC1=O (single isomer, unassigned) [Example I-2-a-44]	2.82		
CCc1cc(Cl)cc(C)c1C1=C(O)C2(CCC3(CCCO3)CC2)OC1=O (single isomer, unassigned) [Example I-2-a-45]	3.34		
Cc1ccc(-c2ccc(Cl)cc2)c(C)c1C1=C(O)C2(CCC3(CCCO3)CC2)OC1=O (stereo not shown) [Example I-2-a-19]	4.06		
Cc1cc(C)c(C2=C(O)C3(CCC4(CCCO4)CC3)OC2=O)cc1C (single isomer, unassigned) [Example I-2-a-49]	2.54		
CCc1cc(Cl)c(C2=C(O)C3(CCC4(CCCO4)CC3)OC2=O)c(Br)c1 (single isomer, unassigned) [Example I-2-a-38]	2.79		
CCc1cc(Br)cc(C)c1C1=C(O)C2(CCC3(CCCO3)CC2)OC1=O (single isomer, unassigned) [Example I-2-a-29]	3.22		
Cc1ccc(C)c(C2=C(O)C3(CCC4(CCCO4)CC3)OC2=O)c1 (single isomer, unassigned) [Example I-2-a-2]	2.73		
CCOC(=O)OC1=C(c2c(C)cc(C)cc2C)C(=O)OC12CCC1(CCCO1)CC2 (stereo not shown) [Example I-2-c-2]			log P: 4.69
Cc1ccc(C)c(C2=C(O)C3(CCC4(CCCO4)CC3)OC2=O)c1 (single isomer, unassigned) [Example I-2-a-3]	2.29		
CCc1cc(Cl)c(C2=C(O)C3(CCC4(CCCO4)CC3)OC2=O)c(Br)c1 (single isomer, unassigned) [Example I-2-a-39]	3.26		
CCc1cc(Br)cc(C)c1C1=C(O)C2(CCC3(CCCO3)CC2)OC1=O (single isomer, unassigned) [Example I-2-a-7]	2.94		
Cc1cc(C)c(-c2ccc(Cl)cc2)c(C)c1C1=C(O)C2(CCC3(CCCO3)CC2)OC1=O (single isomer, unassigned) [Example I-2-a-43]	4.32		
Cc1ccc(-c2ccc(Cl)cc2)cc1C1=C(OC(=O)C(C)C)C2(CCC3(CCCO3)CC2)OC1=O (stereo not shown) [1-2-b-11]		5.86	
COc1cc(C)cc(C)c1C1=C(O)C2(CCC3(CCCO3)CC2)OC1=O (single isomer, unassigned) [Example I-2-a-11]	2.66		
Cc1ccc(-c2ccc(Cl)cc2)cc1C1=C(O)C2(CCC3(CCCO3)CC2)OC1=O (stereo not shown) [Example I-2-a-24]	3.32		

Now from value to compound, other results behind:

log P* [1]	log P* (compounds of formula (I-2-b))	Compound	further results
	4.50	COc1cc(C)cc(C)c1C1=C(OC(=O)C(C)(C)C)C2(CCC3(CCCO3)CC2)OC1=O (stereo not shown) [Example I-2-b-21]	
	3.75	COc1cccc(C)c1C1=C(OC(=O)C(C)C)C2(CCC3(CCCO3)CC2)OC1=O (stereo not shown) [Example I-2-b-18]	
	5.64	Cc1cc(C)c(-c2ccc(Cl)cc2)cc1C1=C(OC(=O)C(C)C)C2(CCC3(CCCO3)CC2)OC1=O (stereo not shown) [Example I-2-b-3]	
	5.38	Cc1ccc(-c2ccc(F)cc2)cc1C1=C(OC(=O)C(C)C)C2(CCC3(CCCO3)CC2)OC1=O (stereo not shown) [Example I-2-b-10]	
	4.52	Cc1cc(C)c(C2=C(OC(=O)C(C)C)C3(CCC4(CCCO4)CC3)OC2=O)c(C)c1 (stereo not shown) [Example I-2-b-7]	
	5.62	CCc1cc(C)cc(CC)c1C1=C(OC(=O)C(C)(C)C)C2(CCC3(CCCO3)CC2)OC1=O (stereo not shown) [Example I-2-b-23]	
	5.79	CCc1cc(C)cc(CC)c1C1=C(OC(=O)C(C)C)C2(CCC3(CCCO3)CC2)OC1=O (stereo not shown) [Example I-2-b-24]	
	5.63	Cc1ccc(-c2ccc(Cl)cc2)c(C)c1C1=C(OC(=O)C(C)C)C2(CCC3(CCCO3)CC2)OC1=O (stereo not shown) [Example I-2-b-15]	
	4.96	Cc1cc(C)c(C2=C(OC(=O)C(C)(C)C)C3(CCC4(CCCO4)CC3)OC2=O)c(C)c1 (stereo not shown) [Example I-2-b-14]	
	4.83	Cc1ccc(-c2ccc(F)cc2)cc1C1=C(OC(=O)C(C)C)C2(CCC3(CCCO3)CC2)OC1=O (stereo not shown) [Example I-2-b-9]	
	5.29	Cc1ccc(-c2ccc(Cl)cc2)cc1C1=C(OC(=O)C(C)C)C2(CCC3(CCCO3)CC2)OC1=O (stereo not shown) [Example I-2-b-13]	
	5.12	Cc1cc(C)c(C2=C(OC(=O)C(C)C)C3(CCC4(CCCO4)CC3)OC2=O)c(C)c1 (stereo not shown) [Example I-2-b-8]	
	4.16	COc1cccc(C)c1C1=C(OC(=O)C(C)(C)C)C2(CCC3(CCCO3)CC2)OC1=O (stereo not shown) [Example I-2-b-19]	
	5.58	Cc1cc(C)c(C2=C(OC(=O)C(C)(C)C)C3(CCC4(CCCO4)CC3)OC2=O)c(C)c1 (stereo not shown) [Example I-2-b-17]	
	4.60	COc1cc(C)cc(C)c1C1=C(OC(=O)C(C)C)C2(CCC3(CCCO3)CC2)OC1=O (stereo not shown) [Example I-2-b-2]	
	5.17	CCc1cc(C)cc(CC)c1C1=C(OC(=O)C(C)C)C2(CCC3(CCCO3)CC2)OC1=O (stereo not shown) [Example I-2-b-22]	
	4.78	Cc1ccc(C)c(C2=C(OC(=O)C(C)C)C3(CCC4(CCCO4)CC3)OC2=O)c1 (stereo not shown) [Example I-2-b-6]	
	5.26	CC(C)C(=O)OC1=C(c2cc(-c3ccc(Cl)cc3)ccc2Cl)C(=O)OC12CCC1(CCCO1)CC2 (stereo not shown) [Example I-2-b-12]	
